In BindingDB's records for doi:10.1016/s0968-0896(01)00282-6 (Purdue University, 2002):

Target: T1, Gag-Pol polyprotein [588-1027]/[588-1147] (Human immunodeficiency virus 1, UniProt P04585)
T1 construct: 588-1027; 588-1147
Test: HIV-1 RT Assay
Settings: pH 7.9

| Structure (SMILES) | IC50 [µM] |
| --- | --- |
| COC(=O)CCC/C=C(/c1cc(C)c(OC)c(C(=O)OC)c1)c1cc(Cl)c(OC)c(C(=O)OC)c1 [Alkenyldiarylmethane (ADAM) 4b] | 0.516 |
| COC(=O)CCC/C=C(/c1ccc(OC)c(C(=O)OC)c1)c1cc(Cl)c(OC)c(C(=O)OC)c1 [Alkenyldiarylmethane (ADAM) 5b] | 0.587 |
| COC(=O)CCCC=C(c1ccc(OC)c(Cl)c1)c1ccc(OC)c(Cl)c1 [Alkenyldiarylmethane (ADAM) 9b] | 100 |
| COC(=O)CCC/C=C\c1cc(C)c(OC)c(C(=O)OC)c1 [Alkenyldiarylmethane (ADAM) 10b] | 88.2 |
| COC(=O)CCCCC(=O)c1cc(C)c(OC)c(C(=O)OC)c1 [Methyl 6-[4-methoxy-5-(methoxycarbonyl)-3-methylphenyl]-6-oxohexanoate] | 100 |
| COC(=O)CCCCCc1cc(C)c(OC)c(C(=O)OC)c1 [Methyl 6-[4-methoxy-5-(methoxycarbonyl)-3-methylphenyl]hexanoate] | 1.75 |
| COC(=O)CCC/C=C(/c1ccc(OC)c(OC)c1)c1cc(C)c(OC)c(C(=O)OC)c1 [Methyl (5Z)-6-(3,4-dimethoxyphenyl)-6-[4-methoxy-3-(methoxycarbonyl)-5-methylphenyl]hex-5-enoate] | 0.074 |
| COC(=O)CCCC#Cc1cc(C)c(OC)c(C(=O)OC)c1 [methyl 2-methoxy-5-(6-methoxy-6-oxohex-1-yn-1-yl)-3-methylbenzoate] | 100 |
| COC(=O)CCC/C=C/c1cc(C)c(OC)c(C(=O)OC)c1 [methyl 2-methoxy-5-[(1E)-6-methoxy-6-oxohex-1-en-1-yl]-3-methylbenzoate] | 100 |
| COC(=O)CCCC=C(c1ccc(OC)c(C(=O)OC)c1)c1ccc(OC)c(C(=O)OC)c1 [methyl 2-methoxy-5-{6-methoxy-1-[4-methoxy-3-(methoxycarbonyl)phenyl]-6-oxohex-1-en-1-yl}benzoate] | 0.504 |
| COC(=O)CCC/C(=C\c1ccc(OC)c(Cl)c1)c1ccc(OC)c(Cl)c1 [methyl (5E)-5,6-bis(3-chloro-4-methoxyphenyl)hex-5-enoate] | 100 |
| COC(=O)CCC/C=C(/c1ccc(OC)c(OC)c1)c1cnccn1 [methyl (5Z)-6-(3,4-dimethoxyphenyl)-6-(pyrazin-2-yl)hex-5-enoate] | 100 |
